Test [1] addresses T1, B-cell lymphoma 6 protein (Homo sapiens, UniProt P41182, C67R/C84N/C8Q). Put plainly: Inhibition of BCOR peptide binding to BCL6 BTB domain (5 to 129 residues) C8Q/C67R/C84N triple mutant (unknown origin) expressed in Escherichia coli BL21(DE3) cells preincubated for 30 mins followed by BCOR ULight peptide addition and measured after 240 mins by TR-FRET assay. (In TR-FRET formats the signal depends on donor and acceptor labels being close together.)

The target in test [2] is B-cell lymphoma 6 protein (Homo sapiens) (UniProt P41182). Put plainly: Induction of BCL6 degradation in human SU-DHL-4 cells at 5 uM measured after 5 mins by capillary electrophoresis relative to control. Type of test: cell-based.
Test [3] has the same target. Put plainly: Induction of BCL6 degradation in human SU-DHL-4 cells at 5 uM measured after 2 hrs by capillary electrophoresis relative to control. It counts as cell-based.
For test [4], the target named is Leucine-rich repeat serine/threonine-protein kinase 2 (Homo sapiens, UniProt Q5S007, G2019S). Nature of the test: Inhibition of LRRK2 G2019S mutant (unknown origin).
Test [5] is described as follows: Antiproliferative activity against human SK-N-BE2 cells after 72 hrs by CyQUANT reagent based assay relative to control. Type of test: functional. The settings on record: SKNBE2.
A short description of test [6]: Selectivity ratio of IC50 for human IOSE144 cells to IC50 for human OVCAR3 cells. It counts as functional.
A further test relates to A2780. Nature of the test: Growth inhibition of human A2780 cells incubated for 48 hrs by MTT assay. Type of test: functional, cell-based. Conditions: A2780, 48 h. For orientation: Tetrazolium dyes change colour on reduction, which living cells bring about.
A further test relates to OVCAR-3. Put plainly: Growth inhibition of human OVCAR3 cells incubated for 48 hrs by MTT assay. The settings on record: OVCAR-3, 48 h. It counts as functional, cell-based.
Test [7] in a line: Selectivity ratio of IC50 for human IOSE144 cells to IC50 for human A2780 cells. Type of test: functional.
The target of test [8] is Histone-lysine N-methyltransferase EZH2 (Homo sapiens, UniProt Q15910). Nature of the test: Binding affinity to EZH2 (unknown origin).
Another test deals with T2, Androgen receptor (Homo sapiens, UniProt P10275).
T2 sequence (P10275 whole entry): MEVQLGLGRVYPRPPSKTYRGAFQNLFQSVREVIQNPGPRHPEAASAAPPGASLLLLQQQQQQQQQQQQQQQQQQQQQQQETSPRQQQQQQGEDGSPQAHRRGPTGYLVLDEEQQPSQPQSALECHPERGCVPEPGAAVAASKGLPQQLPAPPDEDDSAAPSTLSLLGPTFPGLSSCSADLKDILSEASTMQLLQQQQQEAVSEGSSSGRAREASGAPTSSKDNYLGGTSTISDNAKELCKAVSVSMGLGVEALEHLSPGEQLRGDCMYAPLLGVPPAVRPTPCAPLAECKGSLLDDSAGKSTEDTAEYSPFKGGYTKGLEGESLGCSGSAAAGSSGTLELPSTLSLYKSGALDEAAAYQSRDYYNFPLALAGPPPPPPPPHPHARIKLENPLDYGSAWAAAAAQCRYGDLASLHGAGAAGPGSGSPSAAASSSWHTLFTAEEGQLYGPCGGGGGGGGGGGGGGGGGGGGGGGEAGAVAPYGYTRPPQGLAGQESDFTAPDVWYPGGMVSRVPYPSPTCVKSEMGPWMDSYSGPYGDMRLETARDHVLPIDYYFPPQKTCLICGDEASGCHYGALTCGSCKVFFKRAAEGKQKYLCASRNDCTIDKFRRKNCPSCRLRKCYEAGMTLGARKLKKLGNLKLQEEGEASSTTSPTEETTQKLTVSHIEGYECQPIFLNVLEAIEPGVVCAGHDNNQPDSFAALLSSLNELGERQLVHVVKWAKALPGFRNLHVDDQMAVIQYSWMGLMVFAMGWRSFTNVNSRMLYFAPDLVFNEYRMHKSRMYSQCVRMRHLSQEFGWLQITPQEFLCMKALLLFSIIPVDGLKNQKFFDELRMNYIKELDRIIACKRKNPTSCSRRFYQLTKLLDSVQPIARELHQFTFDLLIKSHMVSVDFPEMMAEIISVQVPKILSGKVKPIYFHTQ
Put plainly: Inhibition of androgen receptor LBD domain (unknown origin).

For test [9], the target named is T1, B-cell lymphoma 6 protein. Put plainly: Inhibition of BCL6 BTB domain (5 to 129 residues) C8Q/C67R/C84N triple mutant (unknown origin) expressed in Escherichia coli BL21(DE3) cells using 5-TAMRA-RSEIISTAPSSWVVPG incubated for 1 hr by fluorescence polarization assay. A general note: Polarisation of emitted light reports the rotation of a fluorescent probe.
Another test can be described thus: cells. Conditions: Homo sapiens, SKNBE2, 72 h.
Test [10] has as its target E3 ubiquitin-protein ligase XIAP (Homo sapiens, UniProt P98170). Nature of the test: Binding affinity to XIAP-BIR3 (unknown origin) (124 to 240 residues) expressed in Escherichia coli BL21-Gold (DE3) by surface plasmon resonance assay.
Test [11] deals with Baculoviral IAP repeat-containing protein 2 (Homo sapiens, UniProt Q13490). Nature of the test: Binding affinity to c-IAP1-BIR3 (unknown origin) (124 to 240 residues) expressed in Escherichia coli BL21-Gold (DE3) by surface plasmon resonance assay.
In test [12] the target is Tyrosine-protein kinase JAK1 (Homo sapiens, UniProt P23458). Nature of the test: Inhibition of human JAK1 using 5FAM-KKSRGDYMTMQID as substrate by caliper microfluidic mobility shift assay.
Test [13] deals with Non-receptor tyrosine-protein kinase TYK2 (Homo sapiens, UniProt P29597). Nature of the test: Inhibition of human TYK2 using 5FAM-KKSRGDYMTMQID as substrate by caliper microfluidic mobility shift assay.
A short description of test [14]: Downregulation of JAK3 mRNA expression in human PBMC at 1 uM after 22 hrs by qPCR analysis relative to control. It counts as functional.
For test [15], the target named is T3, Tyrosine-protein kinase JAK3 (Homo sapiens, UniProt P52333).
T3 sequence (P52333 whole entry): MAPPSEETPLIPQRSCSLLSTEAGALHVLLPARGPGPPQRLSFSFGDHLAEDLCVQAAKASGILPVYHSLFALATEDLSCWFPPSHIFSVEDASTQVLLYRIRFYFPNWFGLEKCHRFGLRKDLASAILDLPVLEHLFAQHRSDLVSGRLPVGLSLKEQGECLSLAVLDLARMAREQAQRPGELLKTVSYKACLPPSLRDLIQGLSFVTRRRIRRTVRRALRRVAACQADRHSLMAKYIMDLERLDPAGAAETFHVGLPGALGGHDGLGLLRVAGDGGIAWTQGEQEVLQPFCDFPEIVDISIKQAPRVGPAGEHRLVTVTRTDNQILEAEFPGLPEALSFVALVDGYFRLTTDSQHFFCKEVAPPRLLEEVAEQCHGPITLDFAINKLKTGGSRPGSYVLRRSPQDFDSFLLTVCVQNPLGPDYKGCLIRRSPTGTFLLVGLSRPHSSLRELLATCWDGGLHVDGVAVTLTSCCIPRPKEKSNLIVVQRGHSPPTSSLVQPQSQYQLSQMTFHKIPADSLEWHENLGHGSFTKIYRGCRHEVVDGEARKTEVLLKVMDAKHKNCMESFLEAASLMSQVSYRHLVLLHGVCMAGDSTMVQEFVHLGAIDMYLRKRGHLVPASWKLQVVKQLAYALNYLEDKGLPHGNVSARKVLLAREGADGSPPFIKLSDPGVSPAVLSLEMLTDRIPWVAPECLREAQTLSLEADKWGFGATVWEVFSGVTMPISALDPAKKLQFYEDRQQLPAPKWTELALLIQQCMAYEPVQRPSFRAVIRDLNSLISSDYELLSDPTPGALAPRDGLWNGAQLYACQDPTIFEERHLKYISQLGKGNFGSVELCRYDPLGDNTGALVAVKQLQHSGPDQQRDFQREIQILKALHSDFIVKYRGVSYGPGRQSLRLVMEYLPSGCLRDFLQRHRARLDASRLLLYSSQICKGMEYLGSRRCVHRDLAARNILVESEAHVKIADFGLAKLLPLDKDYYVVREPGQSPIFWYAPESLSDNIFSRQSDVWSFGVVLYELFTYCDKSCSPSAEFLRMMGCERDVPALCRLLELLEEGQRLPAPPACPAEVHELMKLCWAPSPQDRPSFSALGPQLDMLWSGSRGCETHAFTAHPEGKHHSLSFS
Nature of the test: Inhibition of human JAK3 using FITC-KGGEEEEYFELVKK as substrate by caliper microfluidic mobility shift assay.

Test [16] has as its target Tyrosine-protein kinase JAK2 (Homo sapiens, UniProt O60674). Nature of the test: Inhibition of human JAK2 using FITC-KGGEEEEYFELVKK as substrate by caliper microfluidic mobility shift assay.
Test [17] can be described thus: Downregulation of JAK2 mRNA expression in human PBMC at 1 uM after 22 hrs by qPCR analysis relative to control. It counts as functional.

The structures appear in SMILES notation. Square brackets hold non-standard residues; d marks the D form. Peptide text beside a SMILES is read from it. Dip = N[C@H](C(=O)O)C(c1ccccc1)c1ccccc1; Chg = N[C@H](C(=O)O)C1CCCCC1; NMeA = CN[C@@H](C)C(=O)O

Leucine-rich repeat serine/threonine-protein kinase 2, sequence (Q5S007 whole entry G2019S): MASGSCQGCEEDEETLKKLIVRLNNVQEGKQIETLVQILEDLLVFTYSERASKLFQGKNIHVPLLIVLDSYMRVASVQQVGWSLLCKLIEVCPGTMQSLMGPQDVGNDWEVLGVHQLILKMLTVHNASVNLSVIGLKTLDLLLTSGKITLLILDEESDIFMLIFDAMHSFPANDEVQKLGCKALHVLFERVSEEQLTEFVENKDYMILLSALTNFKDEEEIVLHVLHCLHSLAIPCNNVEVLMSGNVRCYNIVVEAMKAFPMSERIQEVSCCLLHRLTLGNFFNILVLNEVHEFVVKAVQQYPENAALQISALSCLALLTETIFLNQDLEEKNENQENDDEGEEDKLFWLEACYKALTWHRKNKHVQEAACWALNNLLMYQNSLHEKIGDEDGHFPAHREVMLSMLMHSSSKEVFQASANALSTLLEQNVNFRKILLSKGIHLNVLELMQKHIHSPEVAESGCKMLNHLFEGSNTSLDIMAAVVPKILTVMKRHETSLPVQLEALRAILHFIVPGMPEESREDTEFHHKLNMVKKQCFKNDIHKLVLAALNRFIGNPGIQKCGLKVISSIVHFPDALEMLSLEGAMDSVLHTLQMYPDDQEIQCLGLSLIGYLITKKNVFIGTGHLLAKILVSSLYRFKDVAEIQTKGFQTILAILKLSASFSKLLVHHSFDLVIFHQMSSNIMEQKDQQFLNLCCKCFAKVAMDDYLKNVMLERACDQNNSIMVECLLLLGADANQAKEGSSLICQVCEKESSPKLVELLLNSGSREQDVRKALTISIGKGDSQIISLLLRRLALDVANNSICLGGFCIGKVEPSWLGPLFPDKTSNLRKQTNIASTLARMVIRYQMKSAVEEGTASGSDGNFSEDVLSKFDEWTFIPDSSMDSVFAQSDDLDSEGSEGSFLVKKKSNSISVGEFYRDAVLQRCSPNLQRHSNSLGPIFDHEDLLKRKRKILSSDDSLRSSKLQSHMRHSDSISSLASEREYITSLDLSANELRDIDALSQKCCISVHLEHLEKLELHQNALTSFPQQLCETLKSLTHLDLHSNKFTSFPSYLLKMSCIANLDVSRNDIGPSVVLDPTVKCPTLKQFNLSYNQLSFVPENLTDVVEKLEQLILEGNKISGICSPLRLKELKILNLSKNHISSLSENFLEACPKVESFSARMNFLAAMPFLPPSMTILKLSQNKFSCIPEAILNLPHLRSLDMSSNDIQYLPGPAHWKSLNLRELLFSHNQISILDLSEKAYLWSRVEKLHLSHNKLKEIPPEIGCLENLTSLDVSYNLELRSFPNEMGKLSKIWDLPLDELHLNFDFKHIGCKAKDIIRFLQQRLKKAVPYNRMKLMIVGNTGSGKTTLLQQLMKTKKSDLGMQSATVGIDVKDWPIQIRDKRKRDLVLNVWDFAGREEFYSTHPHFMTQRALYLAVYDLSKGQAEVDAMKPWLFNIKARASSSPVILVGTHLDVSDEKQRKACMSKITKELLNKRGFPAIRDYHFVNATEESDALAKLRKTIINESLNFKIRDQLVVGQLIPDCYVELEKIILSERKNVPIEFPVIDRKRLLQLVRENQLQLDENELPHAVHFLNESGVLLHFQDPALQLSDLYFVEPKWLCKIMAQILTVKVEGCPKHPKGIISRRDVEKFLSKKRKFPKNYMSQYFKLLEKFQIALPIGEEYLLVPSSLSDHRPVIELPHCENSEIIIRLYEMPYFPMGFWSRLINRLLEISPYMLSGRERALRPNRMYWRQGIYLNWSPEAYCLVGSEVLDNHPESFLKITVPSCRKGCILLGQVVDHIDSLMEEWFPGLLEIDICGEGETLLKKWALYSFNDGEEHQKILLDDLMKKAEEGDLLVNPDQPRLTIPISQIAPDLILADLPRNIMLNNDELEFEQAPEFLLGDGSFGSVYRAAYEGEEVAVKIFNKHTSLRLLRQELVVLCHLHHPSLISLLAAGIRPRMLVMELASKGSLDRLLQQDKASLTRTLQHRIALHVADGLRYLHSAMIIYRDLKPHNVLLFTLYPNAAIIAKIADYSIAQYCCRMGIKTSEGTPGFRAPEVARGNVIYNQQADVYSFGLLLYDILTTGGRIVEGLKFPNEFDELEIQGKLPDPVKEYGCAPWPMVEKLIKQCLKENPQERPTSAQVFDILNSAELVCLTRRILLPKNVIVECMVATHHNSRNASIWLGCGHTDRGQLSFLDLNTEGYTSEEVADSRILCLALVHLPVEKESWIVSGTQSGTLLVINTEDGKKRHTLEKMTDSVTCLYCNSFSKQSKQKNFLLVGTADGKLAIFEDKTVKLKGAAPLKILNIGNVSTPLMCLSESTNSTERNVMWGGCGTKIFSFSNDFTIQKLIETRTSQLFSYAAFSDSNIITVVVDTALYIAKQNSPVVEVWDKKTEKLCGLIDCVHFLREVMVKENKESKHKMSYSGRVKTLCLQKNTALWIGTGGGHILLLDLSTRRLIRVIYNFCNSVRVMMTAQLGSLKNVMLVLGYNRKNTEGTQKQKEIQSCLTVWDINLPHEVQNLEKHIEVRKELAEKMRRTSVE
Histone-lysine N-methyltransferase EZH2, sequence (Q15910 whole entry): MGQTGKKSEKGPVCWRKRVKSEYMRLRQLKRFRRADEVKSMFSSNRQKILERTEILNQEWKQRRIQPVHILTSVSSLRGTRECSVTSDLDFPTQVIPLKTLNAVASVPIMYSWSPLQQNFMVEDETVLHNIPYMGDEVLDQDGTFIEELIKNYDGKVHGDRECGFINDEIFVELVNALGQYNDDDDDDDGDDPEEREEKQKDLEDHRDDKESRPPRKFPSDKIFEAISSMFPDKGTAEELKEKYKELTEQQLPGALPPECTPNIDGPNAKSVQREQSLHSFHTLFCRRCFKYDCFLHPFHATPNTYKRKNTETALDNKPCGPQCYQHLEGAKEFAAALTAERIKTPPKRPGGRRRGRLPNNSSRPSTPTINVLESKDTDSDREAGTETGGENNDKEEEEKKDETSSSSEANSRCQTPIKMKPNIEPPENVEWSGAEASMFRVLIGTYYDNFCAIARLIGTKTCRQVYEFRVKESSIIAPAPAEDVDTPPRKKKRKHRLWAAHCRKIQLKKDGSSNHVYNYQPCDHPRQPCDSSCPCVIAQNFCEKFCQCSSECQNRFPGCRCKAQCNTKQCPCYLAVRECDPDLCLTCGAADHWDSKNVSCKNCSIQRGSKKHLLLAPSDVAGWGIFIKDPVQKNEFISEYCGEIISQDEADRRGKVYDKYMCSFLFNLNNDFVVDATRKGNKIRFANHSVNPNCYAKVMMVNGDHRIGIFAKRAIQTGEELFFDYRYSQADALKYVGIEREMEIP
E3 ubiquitin-protein ligase XIAP, sequence (P98170 whole entry, the tested form may be a part): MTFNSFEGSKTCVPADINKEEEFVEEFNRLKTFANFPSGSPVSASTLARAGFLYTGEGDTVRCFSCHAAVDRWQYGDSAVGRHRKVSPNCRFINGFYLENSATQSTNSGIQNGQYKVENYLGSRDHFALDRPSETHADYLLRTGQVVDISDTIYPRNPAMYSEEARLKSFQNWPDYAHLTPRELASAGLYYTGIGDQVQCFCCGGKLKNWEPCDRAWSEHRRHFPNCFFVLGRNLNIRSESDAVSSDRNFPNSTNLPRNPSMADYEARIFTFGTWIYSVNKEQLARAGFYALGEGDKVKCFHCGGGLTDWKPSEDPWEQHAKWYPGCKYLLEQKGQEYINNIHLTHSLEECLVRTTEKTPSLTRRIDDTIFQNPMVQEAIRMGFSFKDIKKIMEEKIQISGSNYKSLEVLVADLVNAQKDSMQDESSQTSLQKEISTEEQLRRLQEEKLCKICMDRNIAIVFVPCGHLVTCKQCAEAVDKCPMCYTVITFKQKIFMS
Baculoviral IAP repeat-containing protein 2, sequence (Q13490 whole entry, the tested form may be a part): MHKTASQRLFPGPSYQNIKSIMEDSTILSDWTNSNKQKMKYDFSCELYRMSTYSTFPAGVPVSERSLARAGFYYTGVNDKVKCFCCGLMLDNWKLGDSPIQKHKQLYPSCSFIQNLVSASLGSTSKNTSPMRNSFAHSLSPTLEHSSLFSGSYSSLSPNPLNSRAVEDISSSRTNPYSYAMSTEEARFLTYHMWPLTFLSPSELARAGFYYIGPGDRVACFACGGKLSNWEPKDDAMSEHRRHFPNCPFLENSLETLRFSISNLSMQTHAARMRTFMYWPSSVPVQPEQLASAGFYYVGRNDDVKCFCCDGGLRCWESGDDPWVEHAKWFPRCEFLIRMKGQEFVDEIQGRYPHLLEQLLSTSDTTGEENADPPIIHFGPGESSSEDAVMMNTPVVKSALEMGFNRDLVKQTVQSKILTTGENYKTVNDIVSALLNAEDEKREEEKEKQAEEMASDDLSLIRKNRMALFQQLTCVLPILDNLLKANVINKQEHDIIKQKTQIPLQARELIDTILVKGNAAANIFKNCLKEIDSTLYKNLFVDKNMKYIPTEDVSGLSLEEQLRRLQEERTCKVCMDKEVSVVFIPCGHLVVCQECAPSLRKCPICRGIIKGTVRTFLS

Regarding `CNC(=O)COc1cc2cc(Nc3nc(N4C[C@H](C)C[C@H](C)C4)ncc3Cl)cc(OC)c2n(C)c1=O`, the IC50 in test [1] is 3 nM. Moreover, the Activity was 50% in test [2] and over 90% in test [3].
In the case of `CNc1nc(Nc2cn(C(C)(C)C#N)nc2C)ncc1C(F)(F)F` [DNL-201], in [4], the Ki came out at 0.6 nM. That is a sub-nanomolar value.
On to `CNC(=O)COc1cc2cc(Nc3nc(N4CCC(C(=O)N(C)C)CC4)ncc3Cl)cc(OC)c2n(C)c1=O`, for which the Activity in test [2] is 50%; in test [3], over 90%.
The compound `COc1cc(Nc2ncc3c(n2)-c2ccc(Cl)cc2C(c2c(F)cccc2OC)=NC3)ccc1C(=O)O` [ALISERTIB] displayed an Emax in test [5] of 37%.
As to `C[C@H]1[C@@H](O)O[C@@H]2O[C@@]3(C)CC[C@H]4[C@H](C)CC[C@@H]1[C@@]24OO3` [ARTENIMOL], the “Ratio IC50” value in test [6] and in [7] was 5 each time. Moreover, the IC50 with A2780 and with OVCAR-3 was 1000 nM each time.
Take `CC(C)=CCC/C(C)=C/Cc1c(O)c(CC=C(C)C)c2c(c1O)C(=O)C1=CC3CC4C(C)(C)OC(C/C=C(\C)C(=O)O)(C3=O)C14O2` (stereo unspecified): the dissociation constant (Kd) in [8] was determined as 182 nM.
As to `CCNc1nc(Nc2cc(F)c(C(=O)N3CCOCC3)cc2OC)ncc1C(F)(F)F`, in [4], the inhibition constant Ki turned out to be 1 nM.
The compound `CC(=O)N1CCN(CCOc2ccc(C3CCN(C4=Nn5c(nnc5C(F)(F)F)CC4)CC3)cc2)CC1` [AZD3514] came in with an inhibition constant (Ki) on Androgen receptor of 5000 nM.
As to `Cc1cc(C)n(-c2ncc(Cl)c(Nc3ccc(Cl)cc3)n2)n1`, in test [9], the midpoint of inhibition, the IC50, lay at 18000 nM.
Compound `CCOCCNC(=O)/C(C)=C/CC12OC(C)(C)C3CC(C=C4C(=O)c5c(O)c(C/C=C(\C)CCC=C(C)C)c(O)c(CC=C(C)C)c5OC431)C2=O` (stereo unspecified) yielded a dissociation constant (Kd) in [8] of 116 nM.
Regarding `O=C(Nc1ccc(Nc2nccc(Nc3cc(C4CCCC4)[nH]n3)n2)cc1)Nc1cccc(C(F)(F)F)c1`, the Emax in [5] was 14%. Besides, the concentration for a half-maximal effect (EC50) in “cells” was determined as 223 nM.
Consider `CN[C@@H](C)C(=O)N[C@H](C(=O)N1CCC[C@H]1C(=O)N[C@H](C(=O)OC)C(c1ccccc1)c1ccccc1)C1CCCCC1` (H-[NMeA][Chg]P[Dip]-OMe), for which the dissociation constant (Kd) in [10] is 16 nM; in test [11], 6 nM.
For the compound `C[C@@H]1CCN(C(=O)N2CCCC2)C[C@@H]1N(C)c1ncnc2[nH]ccc12`, the IC50 in test [12] was 7.5 nM; in [13], 128 nM; in test [15], 2.8 nM; in test [16], 7.1 nM. The Activity in test [14] and in [17] was 50% throughout.

What is called IC50 is the point on the concentration scale where inhibition reaches its midpoint. As a reminder, the Ki is the dissociation constant of the complex between target and ligand, obtained from inhibition or displacement. A lower Ki goes with higher affinity. Broadly, the Kd is the concentration at which binding is half-saturated. Low values mean tighter binding, high ones weaker binding. The EC50 is the concentration at which the effect is half-maximal. Read a low EC50 as higher potency in that assay.
